Reference: US6403614B1, “Benzothiophenes” (Eli Lilly and Company, priority 1997, dated 2002)

Key:
Type in all cases: in vivo, Sprague Dawley rats
ovariectomized rats [1] = assay: Four Day Ovariectomized Rat Model: Uterine Eosinophil Peroxidase (EPO) Assay; settings: OVX rats, oral daily for four days
Excerpt: (§1) Estrogenicity: Four Day Ovariectomized Rat Model
(§2) Seventy-five day old female Sprague Dawley rats (weight range of 225 g-275 g) were obtained from Charles River Laboratories (Portage, Mich.). The animals were either bilaterally ovariectomized (OVX) or exposed to a Sham surgical procedure at Charles River Laboratories, and then shipped after one week. Upon arrival, these rats were housed in metal hanging cases in groups of three or four animals per cage, and had ad libitum access to food (Teklad diet, TD 89222, 0.5% calcium, 0.4% phosphorous; Madison, Wis.) and water. Room temperature was maintained at 22.2° C.±1.7° C. with a minimum relative humidity of 40%. The photoperiod in the room was twelve hours light and twelve hours dark. […]
(§3) After a one-week acclimation period (two weeks post-OVX), daily dosing with test compound and 17α-ethynylestradiol was initiated. […] The animals were then sacrificed by asphyxiation with CO2, the uterus was removed through a midline incision, and a wet uterine weight was determined.
Uteri were kept at 4° C. until time of enzymatic analysis. […] Upon addition of 0.01% hydrogen peroxide and […] o-phenylenediamine (final concentrations) in Tris buffer, the increase in absorbance was monitored for one minute at 450 nm. […] The maximal velocity of a fifteen second interval was determined over the initial, linear portion of the reaction curve.

ovariectomized rats [2] = assay: Four Day Ovariectomized Rat Model: Serum Cholesterol Analysis; settings: OVX rats, orally administered at 0.1 mg/kg/day, four days
Excerpt: as §1, §2, §3
The blood samples, collected as described above, were allowed to clot at room temperature for two hours, and serum was obtained following centrifugation for ten minutes at 3000 rpm. Serum cholesterol was determined using a high-performance cholesterol assay (Boehringer Mannheim Diagnostics, Indianapolis, Ind.). […] Cholesterol concentration was then calculated against a standard curve.

ovariectomized rats [3] = assay: Four Day Ovariectomized Rat Model: wet uterine weight; settings: OVX rats, orally administered at 0.1 mg/kg/day, four days, versus untreated ovariectomized animals
Excerpt: as §1
Seventy-five day old female Sprague Dawley rats (weight range of 225 g-275 g) were obtained from Charles River Laboratories (Portage, Mich.). The animals were either bilaterally ovariectomized (OVX) or exposed to a Sham surgical procedure at Charles River Laboratories, and then shipped after one week. Upon arrival, these rats were housed in metal hanging cases in groups of three or four animals per cage, and had ad libitum access to food (Teklad diet, TD 89222, 0.5% calcium, 0.4% phosphorous; Madison, Wis.) and water. Room temperature was maintained at 22.2° C.±1.7° C. with a minimum relative humidity of 40%. The photoperiod in the room was twelve hours light and twelve hours dark. Comparative data were obtained between untreated ovariectomized rats, ovariectomized rats treated with 17α-ethynylestradiol (EE2), and ovariectomized rats treated with representative compounds of the present invention.
as §3, with “initiated. The test compounds or 17α-ethynylestradiol (Sigma Chemical Co., St. Louis, Mo.) were given orally, unless otherwise stated, as a suspension in 20% cyclodextrin (CDX).” for “initiated.”

ovariectomized rats [4] = assay: Bone Sparing: Five Week Ovariectomized Rat Model, femur X-ray Bone Assay; settings: OVX rats, oral gavage daily for 35 days, dose of 0.01 mg/kg
Excerpt: Seventy-five day old female Sprague Dawley rats (weight range of 275 g-350 g) were obtained from Charles River Laboratories (Portage, Mich.). The animals were either bilaterally ovariectomized (OVX) or exposed to a Sham surgical procedure at Charles River Laboratories, and then shipped the day following surgery. Upon arrival, these rats were housed in metal hanging cases in groups of three or four animals per cage, and had ad libitum access to food (Teklad diet, TD 89222, 0.5% calcium, 0.4% phosphorous; Madison, Wis.) and water. Room temperature was maintained at 22.2° C.±1.7° C. with a minimum relative humidity of 40%. The photoperiod in the room was twelve hours light and twelve hours dark. Test compound preparation was the same as that described in the Estrogenicty assay above. After a one day acclimation period (two days post-OVX), dosing with test compounds was initiated. Oral gavages 20% CDX, representative compound of the invention (0.01 to 10 mg/kg), or 17α-ethynylestradiol (100 μg/kg) were delivered daily for 35 consecutive days. On the evening following the final dose, the animals were fasted. The next morning the animals were aneshetized with a mixture of Ketaset® and Rompun® (67 and 6.7 mg/kg respectively). […] Quantitation was achieved by measuring the total number of pixels in a standard region of interest proximal to the growth plate, over a gray scale range of zero to 60.

In the case of `C#C[C@]1(O)CC[C@H]2[C@@H]3CCc4cc(O)ccc4[C@H]3CC[C@@]21C` [EE2, 17α-ethynylestradiol], the “eosinophil infiltration (uterine EPO)” value (ovariectomized rats [1]) is reported as “substantial, expected increase in eosinophil infiltration”, the serum cholesterol (ovariectomized rats [2]) is reported as “caused a decrease in serum cholesterol” and the uterine weight (ovariectomized rats [3]) is reported as “substantially greater than the uterine weight of untreated ovariectomized test animals”.
For `CCOCOc1ccc(-c2sc3cc(OCOCC)ccc3c2C(=O)c2ccc(OCCN3CCCCC3)cc2)cc1` [Example 3, 2-(4-[Ethoxymethoxy]phenyl)-3-(4-[(2-Piperidin-1-yl)ethoxy]benzoyl)-6-Ethoxymethoxybenzo[b]thiophene], the “protection of the femur from bone loss (X-ray evaluation)” value (ovariectomized rats [4]) was 9.1%.
